Data: patent publication US20250295800A1, “CONJUGATE OF A SINGLE DOMAIN ANTIBODY, A SAPONIN AND AN EFFECTOR MOLECULE, PHARMACEUTICAL COMPOSITION COMPRISING THE SAME, THERAPEUTIC USE OF SAID PHARMACEUTICAL COMPOSITION” (SAPREME TECHNOLOGIES B.V., priority 2021, published 2025)
Where two headings read alike, the source gives them in different places.

Experiments:
[1] = Critical micellar concentration (CMC) of saponins, ANS fluorimetric method; format: physicochemical; conditions: for CMC: QS saponins derived from Quillaja saponaria
Experimental: The critical micellar concentration (CMC) of saponin SO1861 derived from Saponaria officinalis (SO) and QS saponins derived from Quillaja saponaria (QS) (Table A5) was determined by the method of DeVendittis et al. (A fluorimetric method for the estimation of the critical micelle concentration of surfactants, Analytical Biochemistry, Volume 115, Issue 2, August 1981, Pages 278-286) as follows:
The emission spectrum of 8-Anilinonaphthalene-1-sulfonic acid (ANS) in either purified water (MQ) or PBS (Dulbecco's PBS+/+) was determined at dry weight concentrations of saponins ranging from […] to cover the range below and above the CMC. Above the CMC, the fluorescence yield of ANS increases and the wavelength of maximum emission decreases due to portioning of the fluorescent dye into micelles. Fluorescence yields were recorded on a Fluoroskan Ascent FL (Thermo Scientific) at an excitation wavelength of 355 nm, and an emission wavelength of 460 nm. 6 μg at a concentration of 75.86 μM of ANS were used per sample and measurement.

[2] = tested on: endosomal escape of effector molecule; assay: Endosomal escape enhancing activity of saponins (cell-based assays, in vivo models); conditions: in vivo animal tumor models, LDL lowering therapy models, free or cleavably conjugated saponin
[3] = Release kinetic assay of saponin from linker at various pH; format: physicochemical; conditions: pH 4.0, 37° C.
Experimental: SO1861-SC-Mal (blocked) (saponin covalently coupled to the linker through an acid-labile semicarbazone (sc) bond) was tested for efficient pH sensitive release with a release kinetic assay and compared with release kinetics for SO1861-EMCH (blocked) (saponin covalently coupled to the linker through an acid-labile hydrazone bond). The assay was performed in buffers with pH 7.4, pH 6.0 pH, pH 5.0, pH 4.0 at 37° C. for 24 hours.

[4] = tested on: A2058 cells (EGFR-/HER2+/-/CD71+); assay: Cell viability / cell killing (MTS) assay on A2058 cells; format: cell-based, human
Experimental: (§1) Cells were seeded in a 96 well plate at 5.000-10.000 c/w in 100 μL/well and incubated overnight at 37° C. The next day 10× concentrated treatment-mix samples were prepared in PBS, which contain antibody-conjugated SO1861 (i.e. a ‘binding molecule’ or an ‘endosomal escape enhancing conjugate’ of the invention) and targeted-toxin (i.e. a ‘binding molecule’) both at 10× final concentration. The media was removed from the cell culture plate and replaced by 180 μL culture media, followed by the addition of 20 μL treatment-mix/well. For control, 10× treatment-mix samples were prepared that contained the corresponding concentrations of only antibody-conjugated SO1861, only antibody, only SO1861, only targeted-toxin, or PBS without compound as vehicle control. After treatment the cells were incubated for 72 hr at 37° C. before the cell viability was determined by a MTS-assay, performed according to the manufacturer's instruction (CellTiter 96® AQueous One Solution Cell Proliferation Assay, Promega). Briefly, the MTS solution was diluted 20× in DMEM without phenol red (PAN-Biotech GmbH) supplemented with 10% FBS (PAN-Biotech GmbH). The cells were washed once with 200 μL PBS per well, after which 100 μL diluted MTS solution was added per well. The plate was incubated for approximately 20-30 minutes at 37° C. Subsequently, the optical density at 492 nm was measured on a Thermo Scientific Multiskan FC plate reader (Thermo Scientific). For quantification the background signal of ‘medium only’ wells was subtracted from all other wells, before the ratio of untreated/treated cells was calculated, by dividing the background corrected signal of untreated wells over the background corrected signal of the treated wells.
(§2) After treatment the cells were incubated for 72 hr at 37° C. before the cell viability was determined by a MTS-assay, performed according to the manufacturer's instruction (CellTiter 96@AQueous One Solution Cell Proliferation Assay, Promega). Briefly, the MTS solution was diluted 20× in DMEM without phenol red (PAN-Biotech GmbH) supplemented with 10% FBS. The cells were washed once with 200 μL/PBS well, after which 100 μL diluted MTS solution was added/well. The plate was incubated for approximately 20-30 minutes at 37° C. Subsequently, the OD at 492 nm was measured on a Thermo Scientific Multiskan FC plate reader (Thermo Scientific). For quantification the background signal of ‘medium only’ wells was subtracted from all other wells, before the cell viability percentage of treated/untreated cells was calculated, by dividing the background corrected signal of treated wells over the background corrected signal of the untreated wells (×100).

[5] = tested on: A431 cells (EGFR++/HER2+/-/CD71+); assay: Cell viability / cell killing (MTS) assay on A431 cells; format: cell-based, human
Experimental: as §1, §2

[6] = tested on: MDA-MB-468 cells (HER2-/EGFR++/CD71+); assay: Cell killing (MTS) assay on MDA-MB-468 cells; format: cell-based, human
Experimental: as §2

[7] = tested on: SK-BR-3 cells (HER2++/EGFR+/CD71+); assay: Cell killing (MTS) assay on SK-BR-3 cells; format: cell-based, human
Experimental: as §2

EGFR (human) = EGFR (human) (UniProt P00533); assay: cell-based or functional assay

CC(=O)O[C@@H]1[C@H](O[C@@H]2O[C@@H](C)[C@H](O)[C@@H](O)[C@H]2O)[C@@H](O[C@@H]2O[C@@H](C)[C@H](O[C@@H]3OC[C@@H](O)[C@H](O[C@@H]4OC[C@](O)(CO)[C@H]4O)[C@H]3O)[C@@H](O[C@@H]3O[C@H](CO)[C@@H](O)[C@H](O)[C@H]3O)[C@H]2O)[C@H](OC(=O)[C@]23CCC(C)(C)C[C@H]2C2=CC[C@@H]4[C@@]5(C)CC[C@H](O[C@@H]6O[C@H](C(=O)O)[C@@H](O)[C@H](O[C@@H]7OC[C@@H](O)[C@H](O)[C@H]7O)[C@H]6O[C@@H]6O[C@H](CO)[C@H](O)[C@H](O)[C@H]6O)[C@@](C)(C=O)[C@@H]5CC[C@@]4(C)[C@]2(C)C[C@H]3O)O[C@@H]1C [QS7, QS-7]
CMC [1]: 230 ± 25 µM

CCC(C)C(CC(O)CC(=O)OC1C(C)OC(OC(=O)C23CCC(C)(C)CC2C2=CCC4C5(C)CCC(OC6OC(C(=O)O)C(O)C(OC7OCC(O)C(O)C7O)C6OC6OC(CO)C(O)C(O)C6O)C(C)(C=O)C5CCC4(C)C2(C)CC3O)C(OC2OC(C)C(OC3OCC(O)C(OC4OCC(O)(CO)C4O)C3O)C(OC3OC(CO)C(O)C(O)C3O)C2O)C1O)OC(=O)CC(O)CC(OC1OC(CO)C(O)C1O)C(C)CC (stereo not shown) [QS18, QS-18]
CMC [1]: 68 ± 7 µM

C[C@@H]1O[C@@H](O[C@H]2[C@H](OC(=O)[C@]34CCC(C)(C)C[C@H]3C3=CC[C@@H]5[C@@]6(C)CC[C@H](O[C@H]7O[C@H](C(=O)O)[C@@H](O)[C@H](O[C@@H]8OC[C@@H](O)[C@H](O)[C@H]8O)[C@H]7O[C@@H]7O[C@H](CO)[C@H](O)[C@H](O)[C@H]7O)[C@@](C)(C=O)[C@@H]6CC[C@@]5(C)[C@]3(C)CC4)O[C@H](C)[C@H](O[C@@H]3O[C@H](C)[C@@H](O)[C@H](O)[C@H]3O)[C@@H]2O)[C@H](O)[C@H](O)[C@H]1O[C@@H]1OC[C@@H](O)[C@H](O[C@@H]2OC[C@@H](O)[C@H](O)[C@H]2O)[C@H]1O [SA1641]
endosomal escape enhancing activity [2]: activity was confirmed

CC(=O)OC1C(C)OC(OC2C(C)OC(OC(=O)[C@]34CCC(C)(C)CC3C3=CCC5[C@@]6(C)CC[C@H](OC7OC(C(=O)O)C(O)C(OC8OCC(O)C(O)C8O)C7OC7OC(CO)C(O)C(O)C7O)[C@@](C)(C=O)C6CC[C@@]5(C)[C@]3(C)C[C@H]4O)C(OC3OC(C)C(OC4OCC(O)C(OC5OCC(O)C(O)C5O)C4O)C(O)C3O)C2O)C(O)C1OC1OCC(O)C(O)C1O (stereo partly shown) [SO1832]
endosomal escape enhancing activity [2]: activity was confirmed

CC(=O)OC1C(C)OC(OC2C(C)OC(OC(=O)[C@]34CCC(C)(C)CC3C3=CCC5[C@@]6(C)CC[C@H](OC7OC(C(=O)O)C(O)C(OC8OCC(O)C(O)C8O)C7OC7OC(CO)C(O)C(O)C7O)[C@@](C)(C=NNC(=O)CCCCCN7C(=O)CC(SCCO)C7=O)C6CC[C@@]5(C)[C@]3(C)C[C@H]4O)C(OC3OC(C)C(OC4OCC(O)C(OC5OC(CO)C(O)C(O)C5O)C4O)C(O)C3O)C2O)C(O)C1OC1OCC(O)C(O)C1O (stereo partly shown) [SO1861-EMCH (blocked)]
time to 50% release of saponin [3]: 12 h

CC(=O)OC1C(C)OC(OC2C(C)OC(OC(=O)[C@]34CCC(C)(C)CC3C3=CCC5[C@@]6(C)CC[C@H](OC7OC(C(=O)O)C(O)C(OC8OCC(O)C(O)C8O)C7OC7OC(CO)C(O)C(O)C7O)[C@@](C)(/C=N/NC(=O)CCCCCN7C(=O)C=CC7=O)C6CC[C@@]5(C)[C@]3(C)C[C@H]4O)C(OC3OC(C)C(OC4OCC(O)C(OC5OC(CO)C(O)C(O)C5O)C4O)C(O)C3O)C2O)C(O)C1OC1OCC(O)C(O)C1O (stereo partly shown) [SO1861-EMCH]
cell killing ([4]; A2058 (EGFR-), titrated on fixed 5 pM bivalent VHH-EGFR-dianthin): not effective | cell killing ([4]; A2058 (EGFR-), titrated on fixed 10 pM matuzumab-dianthin): not effective | IC50 ([4]; A2058 (EGFR-/CD71+), titrated on fixed 10 pM CD71mab-saporin): 1.5 µM | IC50 ([5]; A431 (EGFR++), titrated on fixed 5 pM bivalent VHH-EGFR-dianthin, read-out: cell killing IC50): 1.5 µM | IC50 ([5]; A431 (EGFR++), titrated on fixed 10 pM cetuximab-saporin, read-out: cell killing IC50): 1 µM | IC50 ([5]; A431 (EGFR++), titrated on fixed 10 pM matuzumab-dianthin, read-out: cell killing IC50): 1.5 µM | IC50 ([5]; A431 (EGFR++/CD71+), titrated on fixed 10 pM CD71mab-saporin, read-out: cell killing IC50): 2 µM

GE1741
endosomal escape enhancing activity [2]: activity was confirmed

QS-17 [QS17]
CMC [1]: 70 ± 7 µM

QS-21 [QS21]
endosomal escape enhancing activity [2]: activity was confirmed | CMC [1]: 75 ± 8 µM

SO1700
endosomal escape enhancing activity [2]: activity was confirmed

SO1730
endosomal escape enhancing activity [2]: activity was confirmed

SO1772
endosomal escape enhancing activity [2]: activity was confirmed

SO1861
IC50 ([4]; A2058 (CD71+), SO1861 titrated on fixed 50 pM VHHCD71-dianthin): 0.2 µM | cell killing IC50 ([4]; A2058 (EGFR-), SO1861 titrated on fixed 50 pM VHHEGFR-dianthin): no activity | IC50 ([4]; A2058 (HER2+/-), SO1861 titrated on fixed 50 pM VHH-HER2-dianthin): 0.7 µM | endosomal escape enhancing activity [2]: activity was confirmed | CMC value ([1]; native SO1861 in PBS): 185 µM | IC50 ([6]; MDA-MB-468 (EGFR++), SO1861 titrated on fixed 50 pM VHH-EGFR-dianthin): 0.3 µM | IC50 ([6]; MDA-MB-468 (EGFR++), titrated on fixed 1 pM or 5 pM bivalentVHH-EGFR-dianthin): 1 µM | IC50 ([6]; MDA-MB-468 (HER2-/CD71+), SO1861 titrated on fixed 50 pM VHH-CD71-dianthin): 0.2 µM | cell killing IC50 ([6]; MDA-MB-468 (HER2-/CD71+), SO1861 titrated on fixed 50 pM VHH-HER2-dianthin): no enhanced activity compared to SO1861 alone | IC50 ([7]; SK-BR-3 (EGFR+), SO1861 titrated on fixed 50 pM VHH-EGFR-dianthin): 0.7 µM | IC50 ([7]; SK-BR-3 (HER2++/CD71+), SO1861 titrated on fixed 50 pM VHH-CD71-dianthin): 0.2 µM | IC50 ([7]; SK-BR-3 (HER2++/CD71+), SO1861 titrated on fixed 50 pM VHH-HER2-dianthin): 0.2 µM | IC50 ([5]; A431 (CD71+), SO1861 titrated on fixed 50 pM VHHCD71-dianthin, read-out: cell killing IC50): 0.2 µM | IC50 ([5]; A431 (EGFR++), SO1861 titrated on fixed 50 pM VHHEGFR-dianthin, read-out: cell killing IC50): 0.4 µM | cell killing IC50 ([5]; A431 (HER2+/-), SO1861 titrated on fixed 50 pM VHH-HER2-dianthin): no activity | IC50 ([5]; A431, SO1861 alone, read-out: SO1861 tolerated concentration IC50): 1 µM

SO1904
endosomal escape enhancing activity [2]: activity was confirmed

cetuximab-saporin (antibody)
cell killing on MDA-MB-468 (EGFR++), alone (EGFR (human)): 300 pM
